Measured values: ChEMBL document CHEMBL4390668, “Discovery and Structural Optimization of Acridones as Broad-Spectrum Antimalarials” (J Med Chem, 2019)

Columns and labels:
Plasmodium falciparum [1] = assay: Antimalarial activity against multidrug-resistant Plasmodium falciparum 7G8 infected in human erythrocytes by SYBR green 1-based fluorescence assay; assay type: functional, organism-based
HepG2 = assay: Cytotoxicity against human HepG2 cells measured after 24 to 36 hrs by resazurin dye based fluorescence assay; assay type: cell-based
Plasmodium falciparum [2] = assay: Antimalarial activity against atovaquone-resistant Plasmodium falciparum Tm90-C2B infected in human erythrocytes by SYBR green 1-based fluorescence assay; assay type: functional, organism-based
Plasmodium falciparum [3] = assay: Antimalarial activity against chloroquine-sensitive Plasmodium falciparum D6 infected in human erythrocytes by SYBR green 1-based fluorescence assay; assay type: functional, organism-based
[4] = Selectivity index, ratio of IC50 for human HepG2 cells to IC50 for chloroquine-sensitive Plasmodium falciparum D6 infected in human erythrocytes; assay type: toxicity, cell-based; settings: read-out: Ratio IC50
Plasmodium falciparum [5] = assay: Antimalarial activity against multidrug-resistant Plasmodium falciparum Dd2 infected in human erythrocytes by SYBR green 1-based fluorescence assay; assay type: functional, organism-based
Plasmodium berghei = assay: Antimalarial activity against luciferase-expressing Plasmodium berghei ANKA 676m1cl1 sporozoites infected in human HepG2A16 cells measured after 45 hrs by luciferase-luciferin based reporter assay; assay type: functional, organism-based; settings: ANKA 676m1cl1, HepG2A16, 45 h
[6] = Half life in mouse liver microsomes at 1 uM by LC-MS analysis; assay type: ADME, Microsome
[7] = Half life in human liver microsomes at 1 uM by LC-MS analysis; assay type: ADME, Microsome

Structure (SMILES) | IC50 (Plasmodium falciparum [1]) [µM] | IC50 (HepG2) [µM] | IC50 (Plasmodium falciparum [2]) [µM] | IC50 (Plasmodium falciparum [3]) [µM] | selectivity ratio [4] | IC50 (Plasmodium falciparum [5]) [µM] | IC50 (Plasmodium berghei) [µM] | half-life at 1 µM [6] [h] | half-life at 1 µM [7] [h]
CCCN(CCC)CCOc1ccc2[nH]c3ccc(Cl)c(Cl)c3c(=O)c2c1 | 0.032 | 12.7 | 0.274 | 0.099 | 128 | 0.017 | – | – | –
CCCCNCCCOc1ccc2c(=O)c3cc(Cl)c(Cl)cc3[nH]c2c1 | 0.161 | 75.2 | 0.177 | 0.036 | 2490 | 0.145 | – | – | –
O=c1c2ccc(OCCCl)cc2[nH]c2cc(Cl)cc(Cl)c12 | 0.044 | > 100 | 0.409 | 0.014 | > 7140 | 0.012 | – | – | –
CCN(CC)CCOc1ccc2[nH]c3ccc(Cl)cc3c(=O)c2c1 | 0.521 | > 100 | 0.297 | 0.159 | > 629 | 0.399 | – | – | –
CC(C)(C)NCCCOc1ccc2c(=O)c3c(F)cc(F)cc3[nH]c2c1 | 0.627 | 41.5 | 2.5 | 0.115 | 361 | 0.0089 | – | – | –
CCN(CC)CCCOc1ccc2c(=O)c3c(F)cc(F)cc3[nH]c2c1 | 0.044 | 38.6 | 0.705 | 0.032 | 1210 | 0.0078 | – | – | –
CCCN(CCC)CCOc1ccc2[nH]c3cc(F)cc(F)c3c(=O)c2c1 | 0.0032 | 20.2 | 0.27 | 0.0004 | 50600 | 0.001 | 0.00075 | – | –
CC(C)(C)NCCCOc1ccc2c(=O)c3c(Cl)c(Cl)ccc3[nH]c2c1 | 1.63 | 24.8 | > 2.5 | 0.196 | 127 | 1.36 | – | – | –
CCCN(CCC)CCOc1ccc2[nH]c3cc(Cl)c(Cl)cc3c(=O)c2c1 | 0.014 | > 100 | 0.058 | 0.026 | > 3850 | 0.017 | – | – | –
CCN(CC)CCOc1ccc2c(=O)c3cc(F)c(OC)cc3[nH]c2c1 | 0.533 | > 200 | 0.622 | 0.156 | > 1280 | 0.448 | – | – | –
CCN(CC)CCOc1ccc2c(=O)c3cc(Cl)cc(Cl)c3[nH]c2c1 | 1.29 | 35 | > 2.5 | 0.928 | 38 | > 2.5 | – | – | –
CN(C)CCOc1ccc2c(=O)c3c(Cl)c(Cl)ccc3[nH]c2c1 | 1.25 | > 100 | > 2.5 | 0.393 | > 254 | 2 | – | – | –
CCCN(CCC)CCOc1ccc2[nH]c3cc(F)cc(OC)c3c(=O)c2c1 | 0.175 | 55.7 | > 0.25 | 0.035 | 1590 | 0.105 | – | – | –
CC(C)(C)NCCCOc1ccc2c(=O)c3cc(Cl)c(Cl)cc3[nH]c2c1 | 0.421 | 6.1 | 0.551 | 0.123 | 49 | 0.589 | – | – | –
CCN(CC)CCCCCOc1ccc2c(=O)c3ccc(Cl)cc3[nH]c2c1 | – | 31.3 | 1.04 | 0.54 | 58 | 0.511 | 0.202 | > 1 | > 1
O=c1c2ccc(OCCCCl)cc2[nH]c2cc(Cl)c(Cl)cc12 | 2.33 | > 100 | 0.945 | 0.179 | > 558 | 0.161 | – | – | –
O=c1c2ccc(OCCCCl)cc2[nH]c2ccc(Cl)cc12 | 0.051 | > 100 | 0.371 | 0.024 | > 4170 | 0.038 | – | – | –
CCCN(CCC)CCOc1ccc2[nH]c3cc(OC)cc(F)c3c(=O)c2c1 | 0.00042 | 26.4 | 0.047 | 0.0007 | 37700 | 0.00013 | 0.00065 | – | –
CCN(CC)CCNc1ccc2c(=O)c3cc(F)c(OC)cc3[nH]c2c1 | 1.29 | 126 | 1.51 | 0.526 | 239 | 1.17 | – | – | –
CCCN(CCC)CCOc1ccc2c(=O)c3c(OC)cc(Cl)cc3[nH]c2c1 | 0.251 | 45 | > 2.5 | 0.251 | 179 | 0.184 | – | – | –
CCN(CC)CCOc1ccc2c(=O)c3cc(Cl)ccc3[nH]c2c1 | 0.304 | > 100 | 1.16 | – | > 473 | 0.351 | 0.221 | – | –
